Test results reported in patent US11124758B2, “Bacteria culture medium and applications thereof” (priority 2013, dated 2021).
Where two headings read alike, the source gives them in different places.

Assays:
[1] = 4° C., cited from earlier work
E. coli DH5α strain = assay: Shelf life test of antibiotic premixed in culture medium: suppression of E. coli growth after storage; assay type: cell-based; settings: for shelf life of culture media containing the antibiotic: 100 μg/ml, LB medium, storage at 4° C.; for suppression of growth of E. coli DH5α after storage: 6, 12, 18 and 24 months at 4° C.
[2] = 4° C.; cited from earlier work
[3] = in human body; cited from earlier work
[4] = less than 25° C.; cited from earlier work
[5] = 100 μg/ml or 1 mg/ml in LB liquid and LB agar plate medium, two months of storage at 4° C., incubated overnight at 37° C.
[6] = 10 mg/ml in LB liquid and LB agar plate medium, three months of storage at 4° C.
[7] = 100 mg/ml in LB liquid and LB agar plate medium, four months of storage at 4° C.

Question: For `CC1(C)S[C@@H]2[C@H](NC(=O)[C@H](N)c3ccccc3)C(=O)N2[C@H]1C(=O)O` [ampicillin], which “time in which activity reduces by 10%” value ([1]; dissolved in glucose injection solution) is on record?
Answer: Its value is “around 1 hour”.

Question: What about the “time in which activity reduces by 10%” value ([1]; dissolved in water or physiological saline (0.9% sodium chloride)) of the same compound?
Answer: Its value is 2 to 3 days.

Question: What about the “suppression of E. coli growth after storage” value (“suppression of E. coli growth” below) (E. coli DH5α strain; [5]) of the same compound?
Answer: Its value is “unable to suppress E. coli growth completely”.

Question: And the “shelf life of culture media containing the antibiotic” value (E. coli DH5α strain)?
Answer: The value was “no more than two”.

Question: What about the “suppression of E. coli growth” value (E. coli DH5α strain; [6]) of the same compound?
Answer: The value was “unable to suppress E. coli growth completely”.

Question: And the “suppression of E. coli growth” value (E. coli DH5α strain; [7])?
Answer: Its value is “unable to suppress E. coli growth completely”.

Question: What about the “time liquid culture medium and semi-solid agar culture plate medium containing the antibiotic can be kept” value [2] of the same compound?
Answer: Its value is “about one”.

Question: Which “suppression of growth of E. coli DH5α after storage” value (E. coli DH5α strain; 5 and 25 mg/ml, M9 minimal liquid and agar plate medium) does the source give for `CC1(C)S[C@@H]2[C@H](NC(=O)Cc3ccccc3)C(=O)N2[C@H]1C(=O)O.c1ccc(CCNCc2ccccc2)cc1` [benethamine penicillin] here?
Answer: The value was “able to completely suppress the growth”.

Question: And the “suppression of growth of E. coli DH5α after storage” value (E. coli DH5α strain; 5 and 25 mg/ml, TB liquid and TB agar plate medium)?
Answer: The value was “able to completely suppress the growth”.

Question: Which “suppression of growth of E. coli DH5α after storage” value (E. coli DH5α strain; 0.5 and 2.5 mg/ml, LB liquid and LB agar plate medium) does the source give for `CC1(C)S[C@@H]2[C@H](NC(=O)Cc3ccccc3)C(=O)N2[C@H]1C(=O)O.CC1(C)S[C@@H]2[C@H](NC(=O)Cc3ccccc3)C(=O)N2[C@H]1C(=O)O.c1ccc(CNCCNCc2ccccc2)cc1` [benzathine benzylpenicillin] here?
Answer: Its value is “able to completely suppress the growth”.

Question: What about the “suppression of growth of E. coli DH5α after storage” value (E. coli DH5α strain; 0.5 and 2.5 mg/ml, SOC liquid and SOC agar plate medium) of the same compound?
Answer: The value was “able to completely suppress the growth”.

Question: What about the “duration of medicine effect” value [3] of the same compound?
Answer: Its value is 3-4 weeks.

Question: For `CC1(C)S[C@@H]2[C@H](NC(=O)C(C(=O)O)c3ccccc3)C(=O)N2[C@H]1C(=O)O` (stereo partly drawn) [carbenicillin], which “suppression of E. coli growth” value (E. coli DH5α strain; [5]) is on record?
Answer: The value was “unable to suppress E. coli growth completely”.

Question: What about the “shelf life of culture media containing the antibiotic” value (E. coli DH5α strain) of the same compound?
Answer: The value was “no more than two”.

Question: And the “suppression of E. coli growth” value (E. coli DH5α strain; [6])?
Answer: Its value is “unable to suppress E. coli growth completely”.

Question: What about the “suppression of E. coli growth” value (E. coli DH5α strain; [7]) of the same compound?
Answer: Its value is “unable to suppress E. coli growth completely”.

Question: What does the source list for `CC(=O)OCC1=C(C(=O)O)N2C(=O)[C@@H](NC(=O)CSc3ccncc3)[C@H]2SC1.CC(=O)OCC1=C(C(=O)O)N2C(=O)[C@@H](NC(=O)CSc3ccncc3)[C@H]2SC1.c1ccc(CNCCNCc2ccccc2)cc1` [cephapirin benzathine]?
Answer: suppression of growth of E. coli DH5α after storage (E. coli DH5α strain; 0.25 and 1 mg/ml, M9 minimal liquid and agar plate medium): able to completely suppress the growth; suppression of growth of E. coli DH5α after storage (E. coli DH5α strain; 0.25 and 1 mg/ml, YT liquid and YT agar plate medium): able to completely suppress the growth; time injection suspension can be stored stably [4]: ≤ 36 months

Question: For `Cc1onc(-c2ccccc2Cl)c1C(=O)N[C@@H]1C(=O)N2[C@@H]1SC(C)(C)[C@@H]2C(=O)O.Cc1onc(-c2ccccc2Cl)c1C(=O)N[C@@H]1C(=O)N2[C@@H]1SC(C)(C)[C@@H]2C(=O)O.c1ccc(CNCCNCc2ccccc2)cc1` [cloxacillin benzathine], which “suppression of growth of E. coli DH5α after storage” value (E. coli DH5α strain; 0.5 and 2.5 mg/ml, YPD liquid and YPD agar plate medium) is on record?
Answer: Its value is “able to completely suppress the growth”.

Question: And the “suppression of growth of E. coli DH5α after storage” value (E. coli DH5α strain; 0.5 and 2.5 mg/ml, YT liquid and YT agar plate medium)?
Answer: Its value is “able to completely suppress the growth”.

Question: With `CC1(C)S[C@@H]2[C@H](NC(=O)Cc3ccccc3)C(=O)N2[C@H]1C(=O)O.CCN(CC)CCOC(=O)c1ccc(N)cc1` [procaine penicillin] as the compound, how does the “suppression of growth of E. coli DH5α after storage” value (E. coli DH5α strain; 10, 40 and 80 mg/ml, LB liquid and LB agar plate medium) read?
Answer: Its value is “able to completely suppress the growth”.

Question: And the “suppression of growth of E. coli DH5α after storage” value (E. coli DH5α strain; 10, 40 and 80 mg/ml, SOC liquid and SOC agar plate medium)?
Answer: The value was “able to completely suppress the growth”.

Question: What about the “duration of medicine effect” value [3] of the same compound?
Answer: Its value is ≤ 48 h.
